Experimental findings from patent US20250136593A1, “DEGRADATION AGENT AND USE THEREOF” (HITGEN INC., priority 2021, published 2025) are described below.

Where only a bound is given, the exact number is not on record here.

For experiment [1], the target named is T1, BCL-XL protein in MOLT-4 cells (Homo sapiens, UniProt Q07817).
T1 construct: host or cells: MOLT-4
Kind of experiment: Degradation effect on BCL-XL protein in MOLT-4 cells by Western Blot. It is filed as cell-based. The settings on record: 24 hours incubation, corrected by β-actin, read-out: DC50 concentration for BCL-XL protein degradation. On the procedure: Experimental Example 6. Experiment to Evaluate Degradation Effect of Compound on BCL-XL Protein in MOLT-4 Cells by Western Blot Method
SDS-PAGE gel (4-12%) (Genscript), PMSF 100 mM (Biyotime), Cocktail 100× (Biyotime), P/S, RPMI medium modified (Hyclone), FBS (Corning), 4× loading buffer (Thermo), Bcl-xL (54H6) Rabbit mAb (CST), Anti-rabbit IgG-HRP (CST), Anti-β-actin-HRP (Abcam), RIPA (Biyotime), Tween-20, MOLT-4 cell (ATCC), BCA Protein Assay Kit (TIANGEN), Immobilon Western Chemilunescent HRP Substrate (Millipore).
1) Incubation of compound and cells: 1 mL of 10^6 MOLT-4 cells (culture medium: 89% RPMI, 10% FBS, 1% P/S) was inoculated in a 6-well cell culture plate, the compound was subjected to gradient dilution with DMSO, then the compound diluted in DMSO in gradient was diluted again into the MOLT-4 medium, and 1 mL of the diluted compound was directly added to the 6-well plate with the cultured cells and incubated for 24 hours.
2) Protein extraction: After the compound and the cells were co-incubated for 24 hours, the cells were collected and placed in a 1.5 mL centrifuge tube, washed twice with ice-cold PBS, the supernatant was discarded, then 150 μL of RIPA lysis buffer was added and lysis was carried out on ice for 30 minutes; then the cell lysate was centrifuged in a low-temperature centrifuge at 15,000 rpm for 10 minutes, and the supernatant was collected; and BCA Protein Assay Kit was used to quantify the protein in the resulting cell lysate supernatant. 4× loading buffer was added to the cell lysate supernatant and incubated at 85° C. for 10 minutes to obtain a sample. The obtained sample was stored in −80° C. refrigerator for the use on the next day. 20 μg of the sample was taken to perform SDS-Page and transmembrane, 5% skim milk was used to block the membrane for 1 hour, and then Bcl-xL (54H6) rabbit mAb, Anti-rabbit IgG-HRP, Anti-β-actin-HRP were used for incubation. After incubation, Immobilon Western Chemiluminescent HRP Substrate was used for color development, and a gel analyzer was used for analysis.
Analysis was performed with a grayscale analysis software, the amount of BCL-XL protein was corrected by the amount of β-actin, and then Graphpad 6 was used to calculate DC50.

Another experiment concerns MOLT-4 cells. The experiment is described as follows: Inhibitory activity on MOLT4 cell proliferation by Cell Titer-Glo method. It is filed as cell-based. The settings on record: Homo sapiens, 72 hours incubation, read-out: IC50 concentration for inhibiting MOLT-4 cells. On the procedure: Experimental Example 5, Evaluation Experiment of Inhibitory Activity of Compound on MOLT4 Cell Proliferation by Cell Titer-Glo Method
RPMI medium modified (Hyclone), FBS (Corning), Dimethyl Sulfoxide, P/S, CellTiter-Gbo Luminescent Cell Viability Assay (Promega), MOLT-4 cell (ATCC).
MOLT-4 cells were cultured in monolayer in vitro in an incubator containing 5% CO2 air at 37° C. The culture medium was RPMI 1640 with 10% FBS and 1% P/S. 15 μL of MOLT4 cells, containing 5×10^4 cells per ml, was inoculated to a 384-well plate (Corning, 3707), 750 cells/well, and incubated at 37° C. and 5% CO2 for 30 minutes. Then the compound that had been diluted in advance was added, with a total of 9 concentration points, and 2 parallel repetitions for each concentration point. The cell growing group without adding the compound was used as a negative control (maximum signal control), and the culture medium group was used as a blank control (minimum signal control). At the same time, it was ensured that the final DMSO content in each reaction well was 0.1%. The compound and the cells were incubated in a cell culture incubator at 37° C., 5% CO2 for 3 days (72 hours).
The 384-well plate was taken out from the cell culture incubator and allowed to stand at room temperature, equilibrated for 20 to 30 minutes, and then 25 μl of Cell Titer-Glo detection reagent was added to each reaction well, lysed on a shaker for 2 minutes, incubated for 10 minutes, and BMG PHERAStar (Luminescence) was used for reading.
The inhibition rate was calculated based on the luminescence signals: the average value of the negative control (maximum signal control) and the blank control (minimum signal control) was first calculated, then the inhibition rates of the compound at different concentrations for the cells were calculated as follows:
The IC50 of the compound to inhibit cell activity was calculated by fitting with GraphPad Prism 6 using log(inhibitor) vs. response−Variable slope mode. The fitting equation was: Y=Bottom+(Top−Bottom)/(1+10^((LogIC50−X)*HillSlope)), wherein Y represented the inhibition rate and X represented the known compound concentration after Log.

For experiment [2], the target named is ternary complex between BCL-XL and CRBN-DDB1 (Homo sapiens, UniProt Q07817+Q96SW2). Kind of experiment: Compound-induced formation of ternary complex between BCL-XL and CRBN-DDB1 by AlphaLISA. On the set-up: key: the number of + indicates the intensity of AlphaLISA peak signal; ++: the number of + indicates the intensity of AlphaLISA peak signal; +++: the number of + indicates the intensity of AlphaLISA peak signal; ++++: the number of + indicates the intensity of AlphaLISA peak signal; +++++: the number of + indicates the intensity of AlphaLISA peak signal. It is filed as biochemical. The settings on record: peak signal; 60 nM Strep-BCL-XL and 60 nM His-CRBN/DDB1. How it is done: Experimental Example 4, Detection of Compound-Induced Formation of Ternary Complex Between BCL-XL and CRBN-DDB1 by AlphaLISA Method
Sequence of ternary complex between BCL-XL and CRBN-DDB1 (Q07817 whole entry): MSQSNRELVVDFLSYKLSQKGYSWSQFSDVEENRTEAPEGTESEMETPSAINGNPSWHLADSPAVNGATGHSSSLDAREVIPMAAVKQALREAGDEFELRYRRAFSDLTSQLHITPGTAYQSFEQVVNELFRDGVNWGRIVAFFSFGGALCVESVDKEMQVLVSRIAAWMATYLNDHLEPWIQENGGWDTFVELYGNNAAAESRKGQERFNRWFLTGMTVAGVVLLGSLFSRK
Sequence of ternary complex between BCL-XL and CRBN-DDB1 (Q96SW2 whole entry): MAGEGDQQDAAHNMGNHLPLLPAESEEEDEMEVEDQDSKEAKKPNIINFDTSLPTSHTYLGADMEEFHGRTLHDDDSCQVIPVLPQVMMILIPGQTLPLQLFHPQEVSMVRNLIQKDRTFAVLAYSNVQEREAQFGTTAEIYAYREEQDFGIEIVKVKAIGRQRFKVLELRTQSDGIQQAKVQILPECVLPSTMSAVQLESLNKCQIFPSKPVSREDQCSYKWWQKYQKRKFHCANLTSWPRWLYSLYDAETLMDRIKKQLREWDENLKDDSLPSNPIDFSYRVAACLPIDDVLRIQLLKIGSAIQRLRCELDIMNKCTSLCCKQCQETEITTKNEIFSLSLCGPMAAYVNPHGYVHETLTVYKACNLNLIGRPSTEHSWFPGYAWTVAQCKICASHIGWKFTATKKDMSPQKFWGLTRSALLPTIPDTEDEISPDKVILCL
Sequence of ternary complex between BCL-XL and CRBN-DDB1 (Q16531 whole entry partner): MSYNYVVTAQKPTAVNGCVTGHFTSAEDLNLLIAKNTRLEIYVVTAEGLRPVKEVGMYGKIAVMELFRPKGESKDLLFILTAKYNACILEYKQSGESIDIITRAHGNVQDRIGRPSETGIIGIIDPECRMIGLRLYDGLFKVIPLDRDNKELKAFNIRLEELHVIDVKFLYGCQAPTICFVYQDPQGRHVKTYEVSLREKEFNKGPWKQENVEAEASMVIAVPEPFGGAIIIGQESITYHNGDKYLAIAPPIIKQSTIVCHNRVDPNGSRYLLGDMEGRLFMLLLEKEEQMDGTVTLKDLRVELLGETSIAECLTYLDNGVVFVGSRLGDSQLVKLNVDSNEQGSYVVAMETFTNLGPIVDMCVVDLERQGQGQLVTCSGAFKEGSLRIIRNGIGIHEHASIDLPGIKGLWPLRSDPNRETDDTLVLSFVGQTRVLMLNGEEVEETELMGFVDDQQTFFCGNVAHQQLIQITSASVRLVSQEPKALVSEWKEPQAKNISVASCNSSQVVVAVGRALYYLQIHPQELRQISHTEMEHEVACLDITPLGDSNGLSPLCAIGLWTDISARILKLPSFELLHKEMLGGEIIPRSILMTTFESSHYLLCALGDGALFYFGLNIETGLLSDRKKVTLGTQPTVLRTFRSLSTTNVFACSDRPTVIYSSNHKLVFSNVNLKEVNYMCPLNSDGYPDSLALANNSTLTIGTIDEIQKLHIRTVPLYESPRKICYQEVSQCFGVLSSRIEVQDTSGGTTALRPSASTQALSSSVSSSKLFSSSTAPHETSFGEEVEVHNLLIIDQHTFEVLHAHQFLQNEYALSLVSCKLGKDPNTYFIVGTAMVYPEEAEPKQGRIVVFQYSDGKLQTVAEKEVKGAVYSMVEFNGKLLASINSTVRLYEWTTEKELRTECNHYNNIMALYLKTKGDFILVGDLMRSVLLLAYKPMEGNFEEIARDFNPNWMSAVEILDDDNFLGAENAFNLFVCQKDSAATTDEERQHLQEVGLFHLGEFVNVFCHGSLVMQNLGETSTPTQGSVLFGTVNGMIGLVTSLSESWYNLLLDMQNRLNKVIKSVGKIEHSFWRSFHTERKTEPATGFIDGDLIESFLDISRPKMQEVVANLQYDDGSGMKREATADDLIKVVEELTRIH
Na2HPO4(Sigma), NaH2PO4(Sigma), sodium chloride (Sigma), Tween-20 (Sigma), AlphaLISA®Nikel Chelate Acceptor beads (PerkinElmer), Strep-Tactin® Alpha Donor beads (PerkinElmer), Assay plate (Corning), Strep-BCl-XL (HitGen), His-CRBN/DDB1 (HitGen).
DMSO was used to dissolve the dry powder of the test compound to obtain a 10.00 mM solution. The instrument ECHO was used to perform gradient dilution of the compound, which was then added to a 384-well reaction plate (Corning, Cat #3824), so that the final concentration of DMSO in the entire reaction system (10.0 μL) was less than 1%, and the same amount of DMSO was added and used as a control.
Strep-BCl-XL and His-CRBN/DDB1 proteins were dissolved in buffer (10 mM NaH2PO4, 40 mM Na2HPO4, 150 mM sodium chloride, 0.03% Tween20, pH=7.4) to obtain a protein mixture of 60 nM Strep-BCL-XL and 60 nM His-CRBN/DDB1, the protein mixture (5ul/well) was added to the 384-well plate in which the compound had been added, and incubated at room temperature for 30 minutes, then 5 μl of a detection mixture with 50 μg/ml AlphaLISA®Nikel Chelate Acceptor beads and 50 μg/ml Strep-Tactin® Alpha Donor beads was added, and incubated at room temperature for 2 hours; and then a microplate reader was used to detect AlphaLISA signal.
Fifth order polynomial or Sixth order polynomial in Polynomial of Graphpad 6.0 was used for data fitting.

T1 sequence (Q07817 whole entry): as the sequence (Q07817 whole entry) above

With `O=C1CCC(N2Cc3cc(N4CCC(CN5CCN(CC#Cc6ccc(OCC78CC(C(=O)N9CCc%10cnc(-c%11cnc%12ccccc%12c%11)nc%10C9)(C7)C8)cc6)CC5)CC4)ccc3C2=O)C(=O)N1` (centres unmarked) [Compound F2-9], the DC50 in experiment [1] was in the range of 1 to 10 µM. In addition, the IC50 in the experiment on MOLT-4 cells was in the range of 50 to 100 µM.
On to `O=C1CCC(N2Cc3c(CN4CC5(C4)CN(C4CCN(CC#Cc6ccc(/C=C/c7ccc(C(=O)N8CCc9cnc(-c%10cnc%11ccccc%11c%10)nc9C8)cc7)cc6)CC4)C5)cccc3C2=O)C(=O)N1` (centres unmarked) [Compound F3B-3], for which, in experiment [2], the “AlphaLISA signal (PROTAC ternary complex signal intensity)” value (“AlphaLISA signal” below) was “++”. Moreover, the DC50 in experiment [1] was under 1 µM. Further, in the experiment on MOLT-4 cells, the IC50 fell in the range of 1 to 10 µM.
Take `CNc1nc(-c2cnc3ccccc3c2)nc2c1CCN(C(=O)c1ccc(/C=C/c3ccc(C#CCN4CCC(CN5CCN(c6cc7c(cc6F)C(=O)N(C6CCC(=O)NC6=O)C7=O)CC5)CC4)cc3)cc1)C2` (centres unmarked) [Compound F1B-3]: the DC50 in experiment [1] was 1 to 10 µM. Further, the IC50 in the experiment with MOLT-4 cells is 50 to 100 µM.
Consider `O=C1CCC(N2C(=O)c3ccc(N4CCN(CC5CCN(CC#Cc6ccc(/C=C/c7ccc(C(=O)N8CCc9cnc(-c%10cnc%11ccccc%11c%10)nc9C8)cc7)cc6)CC5)CC4)cc3C2=O)C(=O)N1` (centres unmarked) [Compound F1B-2], for which the “AlphaLISA signal” value in experiment [2] was “+”. For the same compound, the DC50 in experiment [1] was in the range of 50 to 100 µM. The IC50 with MOLT-4 cells lay in the range of 50 to 100 µM.
On to `CNc1nc(-c2cnc3ccccc3c2)nc2c1CCN(C(=O)c1ccc(/C=C/c3ccc(C#CCN4CCN(CCC#Cc5cccc(C6CCC(=O)NC6=O)c5)CC4)cc3)cc1)C2` (centres unmarked) [Compound D2-15], for which the DC50 in experiment [1] fell in the range of 1 to 10 µM. For the same compound, the IC50 in the experiment on MOLT-4 cells is under 1 µM.
The corresponding values for `CNc1nc(-c2cnc3ccccc3c2)nc2c1CCN(C(=O)c1ccc(/C=C/c3ccc(C#CCN4CCN(CC5CCN(c6ccc7c(c6)C(=O)N(C6CCC(=O)NC6=O)C7=O)CC5)CC4)cc3)cc1)C2` (centres unmarked) [Compound F2-11] are 1 to 10 µM and 50 to 100 µM.
As for `CNc1nc(-c2cnc3ccccc3c2)nc2c1CCN(C(=O)c1ccc(/C=C/c3ccc(C#CCN4CCN(CCC#Cc5cccc(N6CCC(=O)NC6=O)c5)CC4)cc3)cc1)C2` [Compound H1-1], the DC50 in experiment [1] was under 1 µM. The IC50 in the experiment on MOLT-4 cells is under 1 µM.
`CNc1nc(-c2cnc3ccccc3c2)nc2c1CCN(C(=O)c1ccc(/C=C/c3ccc(C#CCN4CCN(CC5CCN(c6ccc7c(c6)CN(C6CCC(=O)NC6=O)C7=O)CC5)CC4)cc3)cc1)C2` (centres unmarked) [Compound F2-8]: the DC50 in experiment [1] is under 1 µM. The IC50 in the experiment with MOLT-4 cells lay in the range of 1 to 10 µM.
`O=C1CCC(N2Cc3cc(N4CCC(CN5CCN(CC#Cc6ccc(/C=C/c7ccc(C(=O)N8CCc9cnc(-c%10cnc%11ccccc%11c%10)nc9C8)cc7)cc6)CC5)CC4)ccc3C2=O)C(=O)N1` (centres unmarked) [Compound F2-4]: the “AlphaLISA signal” value in experiment [2] was “++”. Also, the DC50 in experiment [1] was 1 to 10 µM. Further, the IC50 in the experiment with MOLT-4 cells was 1 to 10 µM.
Consider `C=Cc1cc(-c2nc3c(c(NC)n2)CCN(C(=O)c2ccc(COc4ccc(C#CCN5CCN(CCCCCNc6cccc7c6C(=O)N(C6CCC(=O)NC6=O)C7=O)CC5)cc4)cc2)C3)cnc1C=C` (centres unmarked) [Compound C2-3], for which, in experiment [2], the “AlphaLISA signal” value was “+++++”. The IC50 with MOLT-4 cells is 100 to 200 µM.
As for `CNc1nc(-c2cnc3ccccc3c2)nc2c1CCN(C(=O)c1ccc(/C=C/c3ccc(C#CCN4CCN(C(=O)CC(=O)N[C@H](C(=O)N5C[C@H](O)C[C@H]5C(=O)N[C@@H](C)c5ccc(-c6scnc6C)cc5)C(C)(C)C)CC4)cc3)cc1)C2` [Compound G2-1], in experiment [2], the “AlphaLISA signal” value was “++”. The IC50 with MOLT-4 cells is over 200 µM.
For `O=C1CCC(N2Cc3c(OC4CC5(C4)CN(C4CCN(CC#Cc6ccc(/C=C/c7ccc(C(=O)N8CCc9cnc(-c%10cnc%11ccccc%11c%10)nc9C8)cc7)cc6)CC4)C5)cccc3C2=O)C(=O)N1` (centres unmarked) [Compound F3B-2] the same measures were “++” and 50 to 100 µM.
For the compound `CNc1nc(-c2cnc3ccccc3c2)nc2c1CCN(C(=O)c1ccc(/C=C/c3ccc(C#CCN4CCN(CCCC#Cc5cccc6c5CN(C5CCC(=O)NC5=O)C6=O)CC4)cc3)cc1)C2` (centres unmarked) [Compound D2-6], the “AlphaLISA signal” value in experiment [2] is on record as “++”. For the same compound, in the experiment with MOLT-4 cells, the IC50 is 100 to 200 µM.
